Data published in patent US20040235955A1, “Remedies for pruritus” (priority 2001, published 2004).

Columns and labels:
[1] = tested on: pruritus induced by serotonin and PGE2; assay: inhibitory effect against pruritus induced by serotonin and PGE2 (scratching count); assay type: in vivo; details: male ICR mice, scratching counted for 30 minutes, vs control
Description: The inhibitory effect against pruritus induced by serotonin and PGE2.
The back of male ICR mice (Charles River Japan Inc., 5 week-old) were sheared by hair clipper. 0.5% MC or the above test compound (100 mg/5 ml/kg or 300 mg/5 ml/kg) was administered orally. After 15 minutes or 1hour, serotonin (3 μg) or mixed solution of serotonin (3 μg) and PGE2 (1nmol) was injected intradermally (20 μl) into the. back of mouse. Scratching of the injected site or the perimeter by the behind paws of mouse was characterized as itch. The scratching was counted for 30 minutes from the injection.
0.5% MC [administration at 15 minutes before the induction]/serotonin (n=10) 0.5% MC [administration at 15 minutes before the induction]/serotonin+PGE2 (n=10) compound (1) [administration at 15 minutes before the induction]/serotonin+PGE2 (n=10) compound (2) [administration at 15 minutes before the
0.5% MC [administration at 1hour before the induction]/serotonin (n=10) 0.5% MC [administration at 1hour before the induction]/serotonin+PGE2 (n=10) compound (3) [administration at 1hour before the induction]/serotonin+PGE2 (n=10)

[2] = tested on: model of allergic dermatitis; assay: inhibitory effect against pruritus in a model of allergic dermatitis (DNFB hapten, scratching count); assay type: in vivo; details: male BALB/c mice; 0.15% DNFB weekly; 100 mg/5 ml/kg orally; scratching from 3 to 5 hours and from 24 to 26 hours after fifth application of hapten; vs control; FIG. 3
Description: The inhibitory effect against pruritus in a model of allergic dermatitis. The back of male BALB/c mice (Charles River Japan Inc., 6 week-old) were sheared by hair clipper. 0.15% dinitrofluorobenzene (DNFB) dissolved in mixed solution of acetone and olive oil as hapten was administered 50 μl by micro pipette in the back once a week. After forth applications, the scratching was measured from 3 to 5 hours and from 24 to 26 hours and mice were divided to each group referring the scratch data. 0.5% MC or the test compound (100 mg/5 ml/kg) was administered orally forth every 30 minutes from 30 minutes before 3 and 24 hours, respectively after fifth application of hapten. The scratching was videotaped from 3 to 5 hours and from 24 to 26 hours, respectively, after fifth application of hapten. The scratching was counted and estimated.

[3] = 100 mg/5 ml/kg orally 15 minutes before intradermal serotonin (3 μg) + PGE2 (1 nmol), FIG. 1

SMILES	number of scratching in serotonin and PGE2-induced pruritus [1, 3]	other results
CC(C)CC(C(=O)Nc1cc(C#N)ccc1Cc1ccccc1C(=O)[O-])c1cccc2ccccc12.[Na+] (stereo not shown) [Compound (2), sodium 2-[4-cyano-2-[4-methyl-2-(1-naphthyl)pentanoylamino]phenylmethyl]benzoate]	inhibited significantly against control	–
COc1ccc(Br)cc1S(=O)(=O)NC(=O)/C=C/c1ccccc1Cc1ccc2ccccc2c1 [Compound (3), (2E)-N-(5-bromo-2-methoxyphenylsulfonyl)-3-(2-(naphthalen-2-ylmethyl)phenyl) -2-propenamide]	–	number of scratching in serotonin and PGE2-induced pruritus ([1]; 300 mg/5 ml/kg orally 1 hour before intradermal serotonin (3 μg) + PGE2 (1 nmol), FIG. 2): inhibited significantly against control
O=C(O)CCc1ccc(Cn2cccn2)cc1OCCc1ccc2ccccc2c1 [Compound (4), 3-(2-(2-(naphthalen-2-yl)ethoxy)-4-(pyrazol-1-ylmethyl)phenyl)propanoic acid]	–	number of scratching in allergic dermatitis model [2]: inhibited significantly against control
O=C([O-])CCc1ccc(Cn2cccn2)cc1OCCc1ccc2ccccc2c1.[Na+] [Compound (1), sodium 3-(2-(2-(naphthalen-2-yl)ethoxy)-4-(pyrazol-1-ylmethyl)phenyl)propanoate]	inhibited significantly against control	–
